Experiments:
splenocytes [1] = test: Splenocyte proliferation (3H-dT uptake) 48 hours after pseudofracture + laparotomy, NOX-100 by osmotic pump; format: in vivo, C57BL/6 mice; settings: PF+laparotomy, NOX-100 30 mg/kg/hr over 48 hours by intraperitoneal osmotic pump, Mean±SEM
Procedure: The mice were divided into six groups (n=5-10):
(§1) Mice then also received either NOX-100 at a dose of 30 mg/kg/hr or vehicle (Veh) over the 48 hour time period. A controlled, continuous drug delivery rate was established through the use of osmotic pumps inserted intraperitoneally by laparotomy. Laparotomy with pump insertion was performed at the time of trauma (0 hours). Please note that the laparotomy procedure itself is considered a significant trauma. Mice in the ‘Unmanipulated controls’ group received no experimental manipulation.
Mice were euthanized at a 48 hour time point. Measurements at this late time point included assessment of splenocyte responses. Splenocyte proliferation, a well established parameter of immune dysfunction was assessed. […] Splenocyte proliferation was assessed using tritiated thymidine (^3H-dT) uptake as counts per minute (c.p.m.).

splenocytes [2] = test: Splenocyte interferon-gamma release (ELISA) 48 hours after pseudofracture + laparotomy, NOX-100 by osmotic pump; format: in vivo, C57BL/6 mice
Procedure: as §1
Additional measurements of splenocyte responses at the late 48 hr time point included assessment of splenocyte interferon-gamma release, an established parameter of immune dysfunction. […] Splenocyte culture supernatants were collected and assessed by ELISA.

splenocytes [3] = test: Splenocyte IFNγ release 48 hours after pseudofracture trauma, mice given 1400 W; format: in vivo; settings: C57BL/6 mice, 1400 W 5 mg/kg intraperitoneally
Procedure: Control mice received no experimental manipulation.
Mice were euthanized at 6 and 48 hours.

Row | Compound | Splenocyte proliferation, tritiated thymidine uptake after antiCD3e stimulation (splenocytes [1]; antiCD3e 1 μg/ml, p<0.05 vs vehicle (FIG. 9B)) | Splenocyte proliferation, tritiated thymidine uptake after concanavalin A stimulation (splenocytes [1]; concanavalin A 2.5 μg/ml, p=0.062 vs vehicle (FIG. 9A)) | Post-injury decrease in splenocyte release of interferon gamma, effect of administration (splenocytes [2]; 48 hrs post injury, NOX-100 30 mg/kg/hr (FIGS. 10A-B)) | Splenocyte interferon-gamma release after antiCD3e stimulation (splenocytes [2]; PF+laparotomy, NOX-100 30 mg/kg/hr over 48 hours by intraperitoneal osmotic pump, antiCD3e 1 μg/ml, Mean±SEM, p<0.05 vs vehicle (FIG. 10B)) | Interferon-gamma release by splenocytes after antiCD3e stimulation following trauma (splenocytes [3]; antiCD3e 1 μg/ml (FIG. 6)) | Concanavalin A stimulated splenocyte cytokine release (IFNγ) following trauma (splenocytes [3]; concanavalin A 2.5 μg/ml (FIG. 4))
1 | CN(C[C@H](O)[C@@H](O)[C@H](O)[C@H](O)CO)C(=S)[S][Na] [NOX-100] | 45208.9±4890.5 c.p.m. | 33658.6±3787.9 c.p.m. | reversed | 604.70 ± 86.96 pg/mL |  | 
2 | CC(=N)NCc1cccc(CN)c1 [1400 W, N-(3-(Aminomethyl)benzyl)acetamidine] |  |  |  |  | no depression in cytokine release | not significantly reduced

— patent US20130102662A1, “USE OF INDUCIBLE NITRIC OXIDE SYNTHASE INHIBITORS AND NITRIC OXIDE […] INHIBIT POST-[…] IMMUNODEPRESSION” (University of Pittsburgh - of the Commonwealth System of …, priority 2011, published 2013)
